{"source": "patent US4782043A", "about": "“Renin inhibitors containing a C-terminal amide cycle” (Merck & Co., Inc., priority 1985, dated 1988)", "note": "Peptide text beside a SMILES is read from it."}
{"biological_target": "hog kidney renin (Sus scrofa, UniProt A0A287APG1)", "sequence (A0A287APG1 67-407)": "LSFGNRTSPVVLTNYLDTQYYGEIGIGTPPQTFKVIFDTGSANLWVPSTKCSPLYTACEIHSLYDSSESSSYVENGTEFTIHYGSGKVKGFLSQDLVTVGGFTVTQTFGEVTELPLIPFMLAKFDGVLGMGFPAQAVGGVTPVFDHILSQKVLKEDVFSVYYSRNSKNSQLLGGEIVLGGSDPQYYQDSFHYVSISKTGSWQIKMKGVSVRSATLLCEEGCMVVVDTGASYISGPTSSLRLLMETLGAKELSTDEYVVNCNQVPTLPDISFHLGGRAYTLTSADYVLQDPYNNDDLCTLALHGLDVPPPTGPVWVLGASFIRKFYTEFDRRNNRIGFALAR", "experiment": "Hog renin inhibition", "type": "biochemical", "conditions": "pH 7.3, concentration producing 50% inhibition of renin activity, read-out: I50", "experimental": "An assay was carried out in order to determine the inhibitory potency of the peptides of the present invention. The assay measured the inhibition of hog kidney renin, and was in accordance with the procedure described in Rich et al., J. Med. Chem. 23: 27, 1980, except that a pH of 7.3 was used. The results of the assay, illustrated in the table below, are expressed as I50 values, which refers to the concentration of peptide inhibitor necessary to produce 50% inhibition of renin activity. This I50 value is obtained typically by plotting data from four inhibitor concentrations. Pepstatin was used as an active control.", "units": {"IC50": "nM"}}
{"molecule": "CC(C)C[C@@H]1NC(=O)C[C@H](O)[C@H](CC(C)C)NC(=O)[C@@H](NC(=O)[C@H](Cc2ccccc2)NC(=O)[C@@H]2CCCN2C(=O)[C@H](Cc2c[nH]cn2)NC(=O)C(C)C)CCCCNC(=O)CNC(=O)[C@H](Cc2ccccc2)NC1=O", "note": "(HELM PEPTIDE1{[CC(C)C(=O)[*:2]].H.P.F.K.[CC(C)C[C@H](N[*:1])[C@@H](O)CC(=O)[*:2]].L.F.G}$PEPTIDE1,PEPTIDE1,5:R3-9:R2$$$V2.0)", "IC50": 1700}
{"molecule": "CC(C)C[C@@H]1NC(=O)C[C@H](O)[C@H](CC(C)C)NC(=O)[C@@H](NC(=O)[C@H](Cc2ccccc2)NC(=O)[C@@H]2CCCN2C(=O)[C@H](Cc2c[nH]cn2)NC(=O)C(C)C)CCNC(=O)CNC(=O)[C@H](Cc2ccccc2)NC1=O", "note": "(HELM PEPTIDE1{[CC(C)C(=O)[*:2]].H.P.F.[Dab].[CC(C)C[C@H](N[*:1])[C@@H](O)CC(=O)[*:2]].L.F.G}$PEPTIDE1,PEPTIDE1,5:R3-9:R2$$$V2.0)", "IC50": 7100}
{"molecule": "CC(C)C[C@@H]1NC(=O)C[C@H](O)[C@H](CC(C)C)NC(=O)[C@@H](NC(=O)[C@H](Cc2ccccc2)NC(=O)[C@@H]2CCCN2C(=O)[C@H](Cc2c[nH]cn2)NC(=O)C(C)C)CCCNC(=O)CNC(=O)[C@H](Cc2ccccc2)NC1=O", "note": "(HELM PEPTIDE1{[CC(C)C(=O)[*:2]].H.P.F.[Orn].[CC(C)C[C@H](N[*:1])[C@@H](O)CC(=O)[*:2]].L.F.G}$PEPTIDE1,PEPTIDE1,5:R3-9:R2$$$V2.0)", "IC50": 2800}
{"molecule": "CC(C)C[C@@H]1NC(=O)C[C@H](O)[C@H](CC(C)C)NC(=O)[C@@H](NC(=O)[C@H](Cc2ccccc2)NC(=O)[C@@H]2CCCN2C(=O)[C@H](Cc2c[nH]cn2)NC(=O)C(C)C)CCCNC(=O)[C@H](Cc2ccccc2)NC1=O", "note": "(HELM PEPTIDE1{[CC(C)C(=O)[*:2]].H.P.F.[Orn].[CC(C)C[C@H](N[*:1])[C@@H](O)CC(=O)[*:2]].L.F}$PEPTIDE1,PEPTIDE1,5:R3-8:R2$$$V2.0)", "IC50": 24000}
{"molecule": "CC(C)C[C@@H]1NC(=O)C[C@H](O)[C@H](Cc2ccccc2)NC(=O)[C@@H](NC(=O)C(CCCc2ccccc2)Cc2ccccc2)CCCCNC(=O)[C@H](Cc2ccccc2)NC1=O", "note": "(single isomer, unassigned) [drawing 38]", "IC50": 26}
{"molecule": "CC(C)C[C@@H]1NC(=O)C[C@H](O)[C@H](CC(C)C)NC(=O)[C@@H](NC(=O)[C@H](Cc2ccccc2)NC(=O)[C@@H]2CCCN2C(=O)[C@H](Cc2c[nH]cn2)NC(=O)C(C)C)CCCCNC(=O)[C@H](Cc2ccccc2)NC1=O", "note": "[drawing 31] (HELM PEPTIDE1{[CC(C)C(=O)[*:2]].H.P.F.K.[CC(C)C[C@H](N[*:1])[C@@H](O)CC(=O)[*:2]].L.F}$PEPTIDE1,PEPTIDE1,5:R3-8:R2$$$V2.0)", "IC50": 230}
{"molecule": "CC(C)C[C@@H]1NC(=O)C[C@H](O)[C@H](CC(C)C)NC(=O)[C@@H](NC(=O)[C@H](Cc2ccccc2)NC(=O)OC(C)(C)C)CCCCNC(=O)[C@H](Cc2ccccc2)NC1=O", "note": "[drawing 37] (HELM PEPTIDE1{[CC(C)(C)OC(=O)[*:2]].F.K.[CC(C)C[C@H](N[*:1])[C@@H](O)CC(=O)[*:2]].L.F}$PEPTIDE1,PEPTIDE1,3:R3-6:R2$$$V2.0)", "IC50": 450}
{"biological_target": "T1, human kidney renin (Homo sapiens, UniProt P00797)", "T1 construct": "human kidney renin purified as described in Bangham; from tissue; host or cells: human kidney", "T1 sequence (P00797 67-406)": "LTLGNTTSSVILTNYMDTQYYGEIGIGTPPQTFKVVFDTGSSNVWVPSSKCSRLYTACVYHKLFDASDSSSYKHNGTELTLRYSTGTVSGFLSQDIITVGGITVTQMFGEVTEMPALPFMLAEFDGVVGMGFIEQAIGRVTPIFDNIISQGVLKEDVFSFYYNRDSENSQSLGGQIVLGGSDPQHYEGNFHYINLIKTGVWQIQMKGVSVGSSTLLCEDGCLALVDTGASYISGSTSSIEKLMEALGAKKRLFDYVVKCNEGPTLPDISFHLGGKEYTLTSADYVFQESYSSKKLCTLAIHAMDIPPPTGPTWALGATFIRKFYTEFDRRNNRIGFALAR", "experiment": "Human renin inhibition", "type": "biochemical", "conditions": "purified human kidney renin; dissociation constant of enzyme-inhibitor complex", "experimental": "An assay was carried out in order to determine the inhibitory potency of the peptides of the present invention. The assay measured the inhibition of human kidney renin purified as described in Bangham, D. R., Robertson, I., Robinson, J. I. S., Robinson, C. J., and Tree, M., Clinical Science and Molecular Medicine, 48 (Supp. 2): 136s-159s (1975), and further purified by affinity chromatography on pepstatin-aminohexyl-Sepharase as describe in Poe, M., Wu., J. K., Florance, J. R., Radkey, J. A., Bennett, C. D., and Hoagsteen, K., J. Biol. Chem. (1982, in press). The assay was also in accordance with Poe et al. cited above. Results are expressed as KI values, which refer to the dissociation constant of the inhibited enzyme-inhibitor complex. This KI value was obtained as described above. Pepstatin was used as an active control.", "units": {"Ki": "nM"}}
{"molecule": "CC(C)C[C@@H]1NC(=O)C[C@H](O)[C@H](Cc2ccccc2)NC(=O)[C@@H](NC(=O)C(CCCc2ccccc2)Cc2ccccc2)CCCCNC(=O)[C@H](Cc2ccccc2)NC1=O", "note": "(single isomer, unassigned) [drawing 41]", "Ki": 190}
{"molecule": "CC(C)C[C@@H]1NC(=O)C[C@H](O)[C@H](CC(C)C)NC(=O)[C@@H](NC(=O)[C@H](Cc2ccccc2)NC(=O)[C@@H]2CCCN2C(=O)[C@H](Cc2c[nH]cn2)NC(=O)C(C)C)CCCCNC(=O)[C@H](Cc2ccccc2)NC1=O", "note": "[drawing 39] (HELM PEPTIDE1{[CC(C)C(=O)[*:2]].H.P.F.K.[CC(C)C[C@H](N[*:1])[C@@H](O)CC(=O)[*:2]].L.F}$PEPTIDE1,PEPTIDE1,5:R3-8:R2$$$V2.0)", "Ki": 55}
{"molecule": "CC(C)C[C@@H]1NC(=O)C[C@H](O)[C@H](CC(C)C)NC(=O)[C@@H](NC(=O)[C@H](Cc2ccccc2)NC(=O)OC(C)(C)C)CCCCNC(=O)[C@H](Cc2ccccc2)NC1=O", "note": "[drawing 40] (HELM PEPTIDE1{[CC(C)(C)OC(=O)[*:2]].F.K.[CC(C)C[C@H](N[*:1])[C@@H](O)CC(=O)[*:2]].L.F}$PEPTIDE1,PEPTIDE1,3:R3-6:R2$$$V2.0)", "Ki": 64}
{"tested_on": "hog renin", "experiment": "not given", "conditions": "nephrectomized rats after injection of hog renin (Gross et al. 1971); cited from earlier work"}
{"molecule": "Pepstatin", "blood pressure in vivo": "reduce blood pressure in vivo"}
